Key:
human SCD5 = molecular target: T1, human SCD5 (Homo sapiens, UniProt Q86SK9); test: Growth inhibition of yeast strain expressing human SCD5 as sole desaturase (OLE1 deleted), OD600 readout; type: cell-based; settings: yeast strain expressing human SCD5 as sole desaturase; growth (OD600) after 40 h at 30° C.; read-out: SCD5 IC50
T1 construct: expressed in transfected cells; host or cells: yeast strain with OLE1 deleted, plasmid-borne human SCD5 (selected in SD-Ura)
T1 sequence (Q86SK9 1-330): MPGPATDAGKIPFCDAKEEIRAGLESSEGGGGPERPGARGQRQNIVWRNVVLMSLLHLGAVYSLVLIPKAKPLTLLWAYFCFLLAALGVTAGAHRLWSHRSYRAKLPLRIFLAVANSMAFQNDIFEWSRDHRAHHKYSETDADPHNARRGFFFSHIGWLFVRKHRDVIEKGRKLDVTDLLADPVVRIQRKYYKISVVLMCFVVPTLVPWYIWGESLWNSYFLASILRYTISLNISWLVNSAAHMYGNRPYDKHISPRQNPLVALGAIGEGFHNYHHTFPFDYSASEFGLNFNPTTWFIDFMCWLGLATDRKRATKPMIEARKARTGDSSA

human SCD1 = molecular target: T2, human SCD1 (Homo sapiens, UniProt O00767); test: Growth inhibition of yeast strain expressing human SCD1 as sole desaturase (OLE1 deleted), OD600 readout; type: cell-based; settings: yeast strain expressing human SCD1 as sole desaturase; growth (OD600) after 40 h at 30° C.; read-out: SCD1 IC50
T2 construct: expressed in transfected cells; host or cells: yeast strain with OLE1 deleted, plasmid-borne human SCD1 (selected in SD-Ura)
T2 sequence (O00767 1-359): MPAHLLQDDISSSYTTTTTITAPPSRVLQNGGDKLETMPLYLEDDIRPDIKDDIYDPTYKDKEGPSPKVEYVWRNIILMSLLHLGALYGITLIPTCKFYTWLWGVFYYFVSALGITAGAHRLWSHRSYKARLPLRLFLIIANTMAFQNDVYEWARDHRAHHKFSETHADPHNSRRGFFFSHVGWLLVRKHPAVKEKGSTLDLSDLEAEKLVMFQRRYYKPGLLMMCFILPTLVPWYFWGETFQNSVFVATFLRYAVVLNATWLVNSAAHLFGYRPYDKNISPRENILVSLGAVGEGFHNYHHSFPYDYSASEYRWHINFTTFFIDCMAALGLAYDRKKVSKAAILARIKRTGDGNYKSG

Structure (SMILES) | IC50 (human SCD5) [µM] | IC50 (human SCD1) [µM]
CN1N=C(C(=O)Nc2ccc(Cc3cccc(C4CC4)c3)nn2)CCC1=O [Compound 187, N-(6-(3-cyclopropylbenzyl)pyridazin-3-yl)-1-methyl-6-oxo-1,4,5,6-tetrahydropyridazine-3-carboxamide] | 6.51 | > 45
CN1N=C(C(=O)Nc2ncc(Cc3ccccc3C#N)s2)CCC1=O [Compound 380] | > 45 | > 45
Cn1nc(C(=O)Nc2ccc(Cc3ccc(Cl)cc3)cn2)ccc1=O [Example 36, N-(5-(4-chlorobenzyl)pyridin-2-yl)-1-methyl-6-oxo-1,6-dihydropyridazine-3-carboxamide] | 0.38 | 16.9
O=C(Nc1ccc(Cc2cccc(F)c2)nn1)c1ccc(=O)n(C2CC2)n1 [Compound 178, 1-cyclopropyl-N-{6-[(3-fluorophenyl)methyl]pyridazin-3-yl}-6-oxo-1,6-dihydropyridazine-3-carboxamide] | 0.77 | 6.67
CN1CC=C(C(=O)Nc2ccc(Cc3cccc(F)c3)cn2)NC1=O [Compound 480] | 0.23 | 3.5
O=C(Nc1ccc(Cc2cc(F)cc(F)c2)cn1)c1ccnnc1 [Compound 622] | 0.016 | 0.023
Cn1cc(C(=O)Nc2ccc(Cc3cncc(F)c3)cn2)ccc1=O [Compound 453] | > 45 | 0.18
O=C(Nc1ccc(Cc2cccc(Cl)c2)cn1)c1ccc2nccn2n1 [Compound 415] | > 45 | > 45
Cn1cc(C(=O)Nc2ccc(Cc3ccc(F)cc3F)cn2)ccc1=O [Compound 538] | 0.18 | 1.6
Cn1nc(C(=O)Nc2ccc(Cc3cc(F)c(F)c(C#N)c3)cn2)ccc1=O [Compound 558] | 0.064 | 43
O=C(Nc1ccc(Cc2cccc(Cl)c2)cn1)c1cnc(CO)nc1 [Compound 494] | 0.01 | 0.01
O=C(Nc1ccc(Cc2cccc(F)c2)cn1)c1ncc(CO)cn1 [Compound 544] | 0.96 | 0.01
O=C(Nc1ccc(Cc2cccc(Cl)c2)cn1)c1ccc(CCO)nc1 [Compound 366] | 0.02 | 0.02
CN1N=C(C(=O)Nc2nnc(Cc3cccc(Cl)c3)o2)CCC1=O [Compound 409] | > 45 | > 45
O=C(Nc1ccc(Cc2cc(F)cc(F)c2)cn1)c1cnc(Cl)cn1 [Compound 635] | 0.062 | > 45
N#Cc1cc(F)cc(Cc2ccc(NC(=O)c3cnc(C#N)cn3)nc2)c1 [Compound 655] | 0.035 | 0.36
O=C(Nc1ccc(Cc2cccc(F)c2)cn1)c1ccnnc1 [Compound 143, N-(5-(3-fluorobenzyl)pyridin-2-yl)pyridazine-4-carboxamide] | 0.37 | 0.51
CO[C@H]1C[C@@H](C(=O)Nc2ccc(Cc3cccc(F)c3)cn2)N(C(=O)OC(C)(C)C)C1 [Compound 446] | > 45 | > 45
Cn1cc(C(=O)Nc2ccc(Cc3cccc(F)c3F)cn2)ccc1=O [Compound 552] | 0.36 | 1.9
Cc1cnc(C(=O)Nc2ccc(Cc3cccc(F)c3)cn2)cn1 [Compound 252] | 0.13 | 0.69
Cn1cc(NC(=O)N2CCC(Oc3cccc(Cl)c3)CC2)ccc1=O [Compound 305] | 6.94 | 27
N#Cc1ccc(C(=O)Nc2ccc(CNc3cccc(Cl)c3)cn2)nc1 [Compound 498] | 5.2 | 2.7
Cc1cc(C(=O)Nc2ccc(Cc3cc(F)cc(C#N)c3)cn2)cnc1Cl [Compound 665] | 0.49 | > 45
CN1N=C(C(=O)Nc2ncc(Cc3ccc(F)cc3)s2)CCC1=O [Compound 208, N-(5-(4-fluorobenzyl)thiazol-2-yl)-1-methyl-6-oxo-1,4,5,6-tetrahydropyridazine-3-carboxamide] | 0.05 | 0.13
COC(=O)c1ccc(C(=O)Nc2ccc(Cc3cccc(Cl)c3)cn2)nn1 [Compound 454] | > 45 | 1.93

Structure (SMILES) | IC50 (human SCD5) [µM] | IC50 (human SCD1) [µM]
Cn1cc(C(=O)Nc2nc(C#N)c(Cc3cccc(F)c3)s2)ccc1=O [Compound 353] | 1.36 | 1.94
CN1N=C(C(=O)Nc2ccc(COc3cccc(Cl)c3)nn2)CCC1=O [Compound 181, N-(6-((3-chlorophenoxy)methyl)pyridazin-3-yl)-1-methyl-6-oxo-1,4,5,6-tetrahydropyridazine-3-carboxamide] | 1.22 | > 45
CN1N=C(C(=O)Nc2ccc(Cc3cccc(C=O)c3)cn2)CCC1=O [Compound 440] | > 45 | > 45
Cn1nc(C(=O)Nc2ccc(OCc3cccc(Cl)c3)cn2)ccc1=O [Compound 171, N-(5-(3-chlorobenzyloxy)pyridin-2-yl)-1-methyl-6-oxo-1,6-dihydropyridazine-3-carboxamide] | 0.86 | > 45
COC(=O)c1ccnc(C(=O)Nc2ccc(Cc3cccc(F)c3)cn2)c1 [Compound 570] | 0.43 | 10
O=C(Nc1ccc(Cc2cccc(Cl)c2)cn1)c1ccc(CO)nc1 [Compound 131, N-(5-(3-chlorobenzyl)pyridin-2-yl)-6-(hydroxymethyl)nicotinamide] | 0.01 | 0.01
CN1N=C(C(=O)Nc2ncc(Cc3ccc(Cl)cc3)s2)CCC1=O [Compound 213, N-(5-(4-chlorobenzyl)thiazol-2-yl)-1-methyl-6-oxo-1,4,5,6-tetrahydropyridazine-3-carboxamide] | 0.38 | 0.39
Cn1nc(C(=O)Nc2ccc(Oc3ccc(F)c(Cl)c3)cn2)ccc1=O [Compound 168, N-[5-(3-chloro-4-fluorophenoxy)pyridin-2-yl]-1-methyl-6-oxo-1,6-dihydropyridazine-3-carboxamide] | 1.72 | > 45
Cn1nc(NC(=O)c2ccc(Cc3cccc(Cl)c3)nn2)ccc1=O [Compound 254] | 3.53 | > 45
Cn1cc(C(=O)Nc2ccc(Cc3cc(F)ccc3F)cn2)ccc1=O [Compound 565] | 0.02 | 2.7
O=C(Nc1ccc(Cc2cccc(Cl)c2)cn1)c1cncc(CO)c1 [Compound 483] | 0.017 | 0.075
N#Cc1cnc(C(=O)Nc2ccc(Cc3cccc(F)c3)cn2)c(F)c1 [Compound 636] | 0.142 | > 45
Cn1cc(C(=O)Nc2ccc(COc3ccc(F)cc3)cn2)ccc1=O [Compound 452] | > 45 | > 45
Cn1cc(C(=O)Nc2ccc(Cc3cc(F)cc(F)c3)cn2)ncc1=O [Compound 672] | 0.42 | 0.5
CCn1nc(C(=O)Nc2ccc(Cc3cccc(Cl)c3)cn2)cc1O [Compound 489] | 0.544 | > 45
CN1N=C(C(=O)Nc2ncc(Cc3ccc(C#N)cc3)s2)CCC1=O [Compound 341] | 2.7 | > 45
Cn1cccc(C(=O)Nc2ccc(Cc3ccc(F)c(Cl)c3)cn2)c1=O [Compound 331] | 0.01 | 0.13
Cn1nc(C(=O)Nc2ccc(C3(c4ccc(F)c(F)c4)CC3)cn2)ccc1=O [Compound 653] | 1.4 | > 45
CCn1cc(C(=O)Nc2ccc(Oc3ccc(F)c(Cl)c3)cn2)ccc1=O [Compound 169, N-[5-(3-chloro-4-fluorophenoxy)pyridin-2-yl]-1-ethyl-6-oxo-1,6-dihydropyridine-3-carboxamide] | 2.48 | > 45
Cn1nc(C(=O)Nc2ccc(Cc3cc(F)cc(F)c3)cn2)ccc1=O [Example 37, N-(5-(3,5-difluorobenzyl)pyridin-2-yl)-1-methyl-6-oxo-1,6-dihydropyridazine-3-carboxamide] | 0.05 | 10.2
Cn1nc(C(=O)Nc2ccc(Cc3cccc(F)c3)nn2)ccc1=O [Compound 195, N-(6-(3-fluorobenzyl)pyridazin-3-yl)-1-methyl-6-oxo-1,6-dihydropyridazine-3-carboxamide] | 2.31 | 15.9
Cn1nc(C(=O)Nc2ccc(CC3CCCCC3)cn2)cc1O [Compound 476] | 7.6 | > 45
CCn1cccc(C(=O)Nc2ccc(Cc3cccc(F)c3)cn2)c1=O [Compound 332] | 0.48 | 1.68
O=C(Nc1ccc(Cc2cc(F)cc(F)c2)cn1)c1ccc2nncn2c1 [Compound 149, N-(5-(3,5-difluorobenzyl)pyridin-2-yl)-[1,2,4]triazolo[4,3-a]pyridine-6-carboxamide] | 0.01 | 0.23
Cn1nc(NC(=O)N[C@H]2CC[C@@H](Cc3cccc(Cl)c3)CC2)ccc1=O [Compound 322] | 6.07 | 12.7

From patent publication US20230078764A1 (Yumanity Therapeutics, Inc., priority 2019, published 2023)
